ChEMBL document CHEMBL5303573, “Mapping human microbiome drug metabolism by gut bacteria and their genes” (Nature, 2019)

assay: The drug is tested on Bacteroides cellulosilyticus strain: DSM14838 for biotransformation. The drug concentrations were measured before and after a 12-h incubation by liquid-chromatography-coupled mass spectrometry (LC–MS); conditions: 2 µM

SMILES	Bacterial Biotransformation
Nc1nc2ccc(OC(F)(F)F)cc2s1 [RILUZOLE]	Compound NOT metabolized
OCCOCCN1CCN(C2=Nc3ccccc3Sc3ccccc32)CC1 [QUETIAPINE]	Compound NOT metabolized
COc1ccccc1OCC(O)CN1CCN(CC(=O)Nc2c(C)cccc2C)CC1 (stereo unspecified) [RANOLAZINE]	Compound NOT metabolized
COc1cc2nc(N3CCN(C(=O)C4CCCO4)CC3)nc(N)c2cc1OC (stereo unspecified) [TERAZOSIN]	Compound NOT metabolized

assay: The drug is tested on Clostridium symbiosum strain: ATCC14940 for biotransformation. The drug concentrations were measured before and after a 12-h incubation by liquid-chromatography-coupled mass spectrometry (LC–MS); conditions: 2 µM

SMILES	Bacterial Biotransformation
Nc1nc2ccc(OC(F)(F)F)cc2s1 [RILUZOLE]	Compound NOT metabolized
OCCOCCN1CCN(C2=Nc3ccccc3Sc3ccccc32)CC1 [QUETIAPINE]	Compound NOT metabolized
COc1ccccc1OCC(O)CN1CCN(CC(=O)Nc2c(C)cccc2C)CC1 (stereo unspecified) [RANOLAZINE]	Compound NOT metabolized
COc1cc2nc(N3CCN(C(=O)C4CCCO4)CC3)nc(N)c2cc1OC (stereo unspecified) [TERAZOSIN]	Compound NOT metabolized

conditions: parabacteroides distasonis, 12 h, 2 µM
Description: The drug is tested on Parabacteroides distasonis strain: ATCC8503 for biotransformation. The drug concentrations were measured before and after a 12-h incubation by liquid-chromatography-coupled mass spectrometry (LC–MS)

SMILES	Bacterial Biotransformation
Nc1nc2ccc(OC(F)(F)F)cc2s1 [RILUZOLE]	Compound metabolized
COc1ccccc1OCC(O)CN1CCN(CC(=O)Nc2c(C)cccc2C)CC1 (stereo unspecified) [RANOLAZINE]	Compound NOT metabolized
COc1cc2nc(N3CCN(C(=O)C4CCCO4)CC3)nc(N)c2cc1OC (stereo unspecified) [TERAZOSIN]	Compound NOT metabolized

assay: The drug is tested on Bacteroides finegoldii strain: DSM17565 for biotransformation. The drug concentrations were measured before and after a 12-h incubation by liquid-chromatography-coupled mass spectrometry (LC–MS); conditions: 2 µM

SMILES	Bacterial Biotransformation
Nc1nc2ccc(OC(F)(F)F)cc2s1 [RILUZOLE]	Compound NOT metabolized
OCCOCCN1CCN(C2=Nc3ccccc3Sc3ccccc32)CC1 [QUETIAPINE]	Compound NOT metabolized
COc1ccccc1OCC(O)CN1CCN(CC(=O)Nc2c(C)cccc2C)CC1 (stereo unspecified) [RANOLAZINE]	Compound NOT metabolized
COc1cc2nc(N3CCN(C(=O)C4CCCO4)CC3)nc(N)c2cc1OC (stereo unspecified) [TERAZOSIN]	Compound NOT metabolized

assay: The drug is tested on Subdoligranulum variabile strain: DSM15176 for biotransformation. The drug concentrations were measured before and after a 12-h incubation by liquid-chromatography-coupled mass spectrometry (LC–MS); conditions: 2 µM

SMILES	Bacterial Biotransformation
Nc1nc2ccc(OC(F)(F)F)cc2s1 [RILUZOLE]	Compound NOT metabolized
OCCOCCN1CCN(C2=Nc3ccccc3Sc3ccccc32)CC1 [QUETIAPINE]	Compound NOT metabolized
COc1ccccc1OCC(O)CN1CCN(CC(=O)Nc2c(C)cccc2C)CC1 (stereo unspecified) [RANOLAZINE]	Compound NOT metabolized
COc1cc2nc(N3CCN(C(=O)C4CCCO4)CC3)nc(N)c2cc1OC (stereo unspecified) [TERAZOSIN]	Compound NOT metabolized

assay: The drug is tested on Eubacterium hallii strain: DSM3353 for biotransformation. The drug concentrations were measured before and after a 12-h incubation by liquid-chromatography-coupled mass spectrometry (LC–MS); conditions: anaerobutyricum hallii, 2 µM

SMILES	Bacterial Biotransformation
Nc1nc2ccc(OC(F)(F)F)cc2s1 [RILUZOLE]	Compound NOT metabolized
OCCOCCN1CCN(C2=Nc3ccccc3Sc3ccccc32)CC1 [QUETIAPINE]	Compound NOT metabolized
COc1ccccc1OCC(O)CN1CCN(CC(=O)Nc2c(C)cccc2C)CC1 (stereo unspecified) [RANOLAZINE]	Compound NOT metabolized
COc1cc2nc(N3CCN(C(=O)C4CCCO4)CC3)nc(N)c2cc1OC (stereo unspecified) [TERAZOSIN]	Compound NOT metabolized

assay: The drug is tested on Clostridium sp. strain: fecal isolate for biotransformation. The drug concentrations were measured before and after a 12-h incubation by liquid-chromatography-coupled mass spectrometry (LC–MS); conditions: 2 µM

SMILES	Bacterial Biotransformation
Nc1nc2ccc(OC(F)(F)F)cc2s1 [RILUZOLE]	Compound metabolized
COc1ccccc1OCC(O)CN1CCN(CC(=O)Nc2c(C)cccc2C)CC1 (stereo unspecified) [RANOLAZINE]	Compound NOT metabolized
COc1cc2nc(N3CCN(C(=O)C4CCCO4)CC3)nc(N)c2cc1OC (stereo unspecified) [TERAZOSIN]	Compound NOT metabolized

assay: The drug is tested on Blautia luti strain: DSM14534 for biotransformation. The drug concentrations were measured before and after a 12-h incubation by liquid-chromatography-coupled mass spectrometry (LC–MS); type: ADME; design: dose 2 uM, timepoint 0 vs 12 hours; conditions: 2 µM

SMILES	Bacterial Biotransformation
OCCOCCN1CCN(C2=Nc3ccccc3Sc3ccccc32)CC1 [QUETIAPINE]	Compound NOT metabolized
COc1ccccc1OCC(O)CN1CCN(CC(=O)Nc2c(C)cccc2C)CC1 (stereo unspecified) [RANOLAZINE]	Compound NOT metabolized
COc1cc2nc(N3CCN(C(=O)C4CCCO4)CC3)nc(N)c2cc1OC (stereo unspecified) [TERAZOSIN]	Compound NOT metabolized

conditions: bacteroides thetaiotaomicron, 12 h, 2 µM
Description: The drug is tested on Bacteroides thetaiotaomicron strain: VPI-5482 for biotransformation. The drug concentrations were measured before and after a 12-h incubation by liquid-chromatography-coupled mass spectrometry (LC–MS)

SMILES	Bacterial Biotransformation
Nc1nc2ccc(OC(F)(F)F)cc2s1 [RILUZOLE]	Compound metabolized
COc1ccccc1OCC(O)CN1CCN(CC(=O)Nc2c(C)cccc2C)CC1 (stereo unspecified) [RANOLAZINE]	Compound NOT metabolized
COc1cc2nc(N3CCN(C(=O)C4CCCO4)CC3)nc(N)c2cc1OC (stereo unspecified) [TERAZOSIN]	Compound NOT metabolized

assay: The drug is tested on Bacteroides ovatus strain: ATCC8483 for biotransformation. The drug concentrations were measured before and after a 12-h incubation by liquid-chromatography-coupled mass spectrometry (LC–MS); conditions: 2 µM

SMILES	Bacterial Biotransformation
Nc1nc2ccc(OC(F)(F)F)cc2s1 [RILUZOLE]	Compound NOT metabolized
OCCOCCN1CCN(C2=Nc3ccccc3Sc3ccccc32)CC1 [QUETIAPINE]	Compound NOT metabolized
COc1ccccc1OCC(O)CN1CCN(CC(=O)Nc2c(C)cccc2C)CC1 (stereo unspecified) [RANOLAZINE]	Compound NOT metabolized
COc1cc2nc(N3CCN(C(=O)C4CCCO4)CC3)nc(N)c2cc1OC (stereo unspecified) [TERAZOSIN]	Compound NOT metabolized

assay: The drug is tested on Bacteroides fragilis strain: ATCC43859 for biotransformation. The drug concentrations were measured before and after a 12-h incubation by liquid-chromatography-coupled mass spectrometry (LC–MS); conditions: 2 µM

SMILES	Bacterial Biotransformation
Nc1nc2ccc(OC(F)(F)F)cc2s1 [RILUZOLE]	Compound metabolized
OCCOCCN1CCN(C2=Nc3ccccc3Sc3ccccc32)CC1 [QUETIAPINE]	Compound NOT metabolized
COc1ccccc1OCC(O)CN1CCN(CC(=O)Nc2c(C)cccc2C)CC1 (stereo unspecified) [RANOLAZINE]	Compound NOT metabolized
COc1cc2nc(N3CCN(C(=O)C4CCCO4)CC3)nc(N)c2cc1OC (stereo unspecified) [TERAZOSIN]	Compound NOT metabolized

assay: The drug is tested on Escherichia coli strain: BW25113 for biotransformation. The drug concentrations were measured before and after a 12-h incubation by liquid-chromatography-coupled mass spectrometry (LC–MS); conditions: 2 µM

SMILES	Bacterial Biotransformation
OCCOCCN1CCN(C2=Nc3ccccc3Sc3ccccc32)CC1 [QUETIAPINE]	Compound NOT metabolized

conditions: bacteroides fragilis, 12 h, 2 µM
Description: The drug is tested on Bacteroides fragilis strain: DS-208 for biotransformation. The drug concentrations were measured before and after a 12-h incubation by liquid-chromatography-coupled mass spectrometry (LC–MS)

SMILES	Bacterial Biotransformation
Nc1nc2ccc(OC(F)(F)F)cc2s1 [RILUZOLE]	Compound metabolized
OCCOCCN1CCN(C2=Nc3ccccc3Sc3ccccc32)CC1 [QUETIAPINE]	Compound NOT metabolized
COc1ccccc1OCC(O)CN1CCN(CC(=O)Nc2c(C)cccc2C)CC1 (stereo unspecified) [RANOLAZINE]	Compound NOT metabolized
COc1cc2nc(N3CCN(C(=O)C4CCCO4)CC3)nc(N)c2cc1OC (stereo unspecified) [TERAZOSIN]	Compound NOT metabolized

assay: The drug is tested on Clostridium scindens strain: ATCC35704 for biotransformation. The drug concentrations were measured before and after a 12-h incubation by liquid-chromatography-coupled mass spectrometry (LC–MS); conditions: 2 µM

SMILES	Bacterial Biotransformation
Nc1nc2ccc(OC(F)(F)F)cc2s1 [RILUZOLE]	Compound NOT metabolized
OCCOCCN1CCN(C2=Nc3ccccc3Sc3ccccc32)CC1 [QUETIAPINE]	Compound NOT metabolized
COc1ccccc1OCC(O)CN1CCN(CC(=O)Nc2c(C)cccc2C)CC1 (stereo unspecified) [RANOLAZINE]	Compound NOT metabolized

assay: The drug is tested on Bifidobacterium breve strain: DSM20213 for biotransformation. The drug concentrations were measured before and after a 12-h incubation by liquid-chromatography-coupled mass spectrometry (LC–MS); conditions: 2 µM

SMILES	Bacterial Biotransformation
Nc1nc2ccc(OC(F)(F)F)cc2s1 [RILUZOLE]	Compound NOT metabolized
OCCOCCN1CCN(C2=Nc3ccccc3Sc3ccccc32)CC1 [QUETIAPINE]	Compound NOT metabolized
COc1ccccc1OCC(O)CN1CCN(CC(=O)Nc2c(C)cccc2C)CC1 (stereo unspecified) [RANOLAZINE]	Compound NOT metabolized
COc1cc2nc(N3CCN(C(=O)C4CCCO4)CC3)nc(N)c2cc1OC (stereo unspecified) [TERAZOSIN]	Compound NOT metabolized

assay: The drug is tested on Eubacterium rectale strain: ATCC33656 for biotransformation. The drug concentrations were measured before and after a 12-h incubation by liquid-chromatography-coupled mass spectrometry (LC–MS); conditions: agathobacter rectalis, 2 µM

SMILES	Bacterial Biotransformation
Nc1nc2ccc(OC(F)(F)F)cc2s1 [RILUZOLE]	Compound NOT metabolized
OCCOCCN1CCN(C2=Nc3ccccc3Sc3ccccc32)CC1 [QUETIAPINE]	Compound NOT metabolized
COc1ccccc1OCC(O)CN1CCN(CC(=O)Nc2c(C)cccc2C)CC1 (stereo unspecified) [RANOLAZINE]	Compound NOT metabolized
COc1cc2nc(N3CCN(C(=O)C4CCCO4)CC3)nc(N)c2cc1OC (stereo unspecified) [TERAZOSIN]	Compound NOT metabolized

conditions: bacteroides fragilis, 12 h, 2 µM; remark: another data set of the same source
Description: The drug is tested on Bacteroides fragilis strain: NCTC 9343 for biotransformation. The drug concentrations were measured before and after a 12-h incubation by liquid-chromatography-coupled mass spectrometry (LC–MS)

SMILES	Bacterial Biotransformation
Nc1nc2ccc(OC(F)(F)F)cc2s1 [RILUZOLE]	Compound NOT metabolized
OCCOCCN1CCN(C2=Nc3ccccc3Sc3ccccc32)CC1 [QUETIAPINE]	Compound NOT metabolized
COc1ccccc1OCC(O)CN1CCN(CC(=O)Nc2c(C)cccc2C)CC1 (stereo unspecified) [RANOLAZINE]	Compound NOT metabolized
COc1cc2nc(N3CCN(C(=O)C4CCCO4)CC3)nc(N)c2cc1OC (stereo unspecified) [TERAZOSIN]	Compound NOT metabolized

conditions: bacteroides thetaiotaomicron, 12 h, 2 µM; remark: another data set of the same source
Description: The drug is tested on Bacteroides thetaiotaomicron strain: 3731 for biotransformation. The drug concentrations were measured before and after a 12-h incubation by liquid-chromatography-coupled mass spectrometry (LC–MS)

SMILES	Bacterial Biotransformation
Nc1nc2ccc(OC(F)(F)F)cc2s1 [RILUZOLE]	Compound NOT metabolized
COc1ccccc1OCC(O)CN1CCN(CC(=O)Nc2c(C)cccc2C)CC1 (stereo unspecified) [RANOLAZINE]	Compound NOT metabolized
COc1cc2nc(N3CCN(C(=O)C4CCCO4)CC3)nc(N)c2cc1OC (stereo unspecified) [TERAZOSIN]	Compound NOT metabolized

assay: The drug is tested on Enterobacter cancerogenus strain: ATCC35316 for biotransformation. The drug concentrations were measured before and after a 12-h incubation by liquid-chromatography-coupled mass spectrometry (LC–MS); conditions: 2 µM

SMILES	Bacterial Biotransformation
Nc1nc2ccc(OC(F)(F)F)cc2s1 [RILUZOLE]	Compound NOT metabolized
OCCOCCN1CCN(C2=Nc3ccccc3Sc3ccccc32)CC1 [QUETIAPINE]	Compound NOT metabolized
COc1ccccc1OCC(O)CN1CCN(CC(=O)Nc2c(C)cccc2C)CC1 (stereo unspecified) [RANOLAZINE]	Compound NOT metabolized
COc1cc2nc(N3CCN(C(=O)C4CCCO4)CC3)nc(N)c2cc1OC (stereo unspecified) [TERAZOSIN]	Compound NOT metabolized

assay: The drug is tested on Bacteroides caccae strain: ATCC43185 for biotransformation. The drug concentrations were measured before and after a 12-h incubation by liquid-chromatography-coupled mass spectrometry (LC–MS); conditions: 2 µM

SMILES	Bacterial Biotransformation
Nc1nc2ccc(OC(F)(F)F)cc2s1 [RILUZOLE]	Compound NOT metabolized
OCCOCCN1CCN(C2=Nc3ccccc3Sc3ccccc32)CC1 [QUETIAPINE]	Compound NOT metabolized
COc1ccccc1OCC(O)CN1CCN(CC(=O)Nc2c(C)cccc2C)CC1 (stereo unspecified) [RANOLAZINE]	Compound NOT metabolized
COc1cc2nc(N3CCN(C(=O)C4CCCO4)CC3)nc(N)c2cc1OC (stereo unspecified) [TERAZOSIN]	Compound NOT metabolized
